These are literature values, as cited in article PMC3826081 (Journal of the American Chemical Society, 2013).

This data set addresses PG9. As to conditions: read-out: Kd for binding of PG9; NMR studies; glycan-Asn alone; cited from earlier work.

Usually Kd stands for a measure of binding affinity in units of concentration. In the case of `CC(=O)N[C@@H]1[C@@H](O)[C@H](O[C@@H]2O[C@H](CO)[C@@H](O[C@@H]3O[C@H](CO[C@H]4O[C@H](CO[C@H]5O[C@H](CO)[C@@H](O)[C@H](O)[C@@H]5O)[C@@H](O)[C@H](O[C@H]5O[C@H](CO)[C@@H](O)[C@H](O)[C@@H]5O)[C@@H]4O)[C@@H](O)[C@H](O[C@H]4O[C@H](CO)[C@@H](O)[C@H](O)[C@@H]4O)[C@@H]3O)[C@H](O)[C@H]2NC(C)=O)[C@@H](CO)O[C@H]1NC(=O)C[C@H](N)C(=O)O` [Man5GlcNAc2–Asn], the Kd was 1 to 2 mM.
